{"source": "patent US12077503B2", "about": "“Substituted cyclic amides and their use as herbicides” (FMC CORPORATION, priority 2015, dated 2024)", "type_in_all_cases": "in vivo", "key": {"[1]": {"system": "Kochia (Kochia scoparia)", "assay": "Test A preemergence", "conditions": "Bassia scoparia, pre-emergence, 240 h", "outline": "(§1)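 Preemergence soil spray on seeded pots or post-emergence spray on 1–2 leaf plants, in loam–sand blend. Greenhouse ~10 d. Visual rating 0–100 against untreated plants.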"}, "[2]": {"system": "barnyardgrass (Echinochloa crus-galli)", "assay": "Test A preemergence", "conditions": "Echinochloa crus-galli, pre-emergence, 240 h", "outline": "as §1"}, "[3]": {"system": "giant foxtail (Setaria faberii)", "assay": "Test A preemergence", "conditions": "Setaria faberi, pre-emergence, 240 h", "outline": "as §1"}, "[4]": {"system": "pigweed (Amaranthus retroflexus)", "assay": "Test A preemergence", "conditions": "Amaranthus retroflexus, pre-emergence, 240 h"}, "[5]": {"system": "ragweed (common ragweed, Ambrosia elatior)", "assay": "Test A preemergence", "conditions": "Ambrosia artemisiifolia, pre-emergence, 240 h", "outline": "as §1"}, "[6]": {"system": "ryegrass, Italian (Italian ryegrass, Lolium multiflorum)", "assay": "Test A preemergence", "conditions": "Lolium multiflorum, pre-emergence, 240 h", "outline": "as §1"}, "[7]": {"system": "Galium (catchweed bedstraw, Galium aparine)", "assay": "Test A postemergence", "conditions": "Galium, post-emergence, 240 h, read-out: Plant response rating, Galium", "outline": "as §1"}, "[8]": {"system": "Kochia (Kochia scoparia)", "assay": "Test A postemergence", "conditions": "Bassia scoparia, post-emergence, 240 h, read-out: Plant response rating, Kochia", "outline": "as §1"}, "[9]": {"system": "barnyardgrass (Echinochloa crus-galli)", "assay": "Test A postemergence", "conditions": "Echinochloa crus-galli, post-emergence, 240 h, read-out: Plant response rating, Barnyardgrass", "outline": "as §1"}, "[10]": {"system": "blackgrass (Alopecurus myosuroides)", "assay": "Test A postemergence", "conditions": "Alopecurus myosuroides, post-emergence, 240 h, read-out: Plant response rating, Blackgrass", "outline": "as §1"}, "[11]": {"system": "corn (Zea mays)", "assay": "Test A postemergence", "conditions": "Zea mays, post-emergence, 240 h", "outline": "as §1"}, "[12]": {"system": "giant foxtail (Setaria faberii)", "assay": "Test A postemergence", "conditions": "Setaria faberi, post-emergence, 240 h, read-out: Plant response rating, Foxtail, Giant", "outline": "as §1"}, "[13]": {"system": "pigweed (Amaranthus retroflexus)", "assay": "Test A postemergence", "conditions": "Amaranthus retroflexus, post-emergence, 240 h, read-out: Plant response rating, Pigweed", "outline": "as §1"}, "[14]": {"system": "ragweed (common ragweed, Ambrosia elatior)", "assay": "Test A postemergence", "conditions": "Ambrosia artemisiifolia, post-emergence, 240 h, read-out: Plant response rating, Ragweed", "outline": "as §1"}, "[15]": {"system": "ryegrass, Italian (Italian ryegrass, Lolium multiflorum)", "assay": "Test A postemergence", "conditions": "Lolium multiflorum, post-emergence, 240 h, read-out: Plant response rating, Ryegrass, Italian", "outline": "as §1"}, "[16]": {"system": "wheat (Triticum aestivum)", "assay": "Test A postemergence", "conditions": "Triticum aestivum, post-emergence, 240 h, read-out: Plant response rating, Wheat", "outline": "as §1"}, "[17]": {"system": "barnyardgrass (Echinochloa crus-galli)", "assay": "Test B flooded paddy test", "conditions": "Echinochloa crus-galli, 250 g ai/ha, Flood; 0 to 100 scale where 0 is no effect and 100 is complete control; read-out: Barnyardgrass plant response rating", "outline": "(§2)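 Rating scale 0–100 (visual, vs untreated controls) after a 13–15 d greenhouse period; application to the flood layer, 3 cm above soil and maintained; plants at 2-leaf stage when treated.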"}, "[18]": {"system": "ducksalad (Heteranthera limosa)", "assay": "Test B flooded paddy test", "conditions": "Heteranthera limosa, 250 g ai/ha, Flood; 0 to 100 scale where 0 is no effect and 100 is complete control; read-out: Ducksalad plant response rating", "outline": "as §2"}, "[19]": {"system": "rice (Oryra sativa)", "assay": "Test B flooded paddy test", "conditions": "Oryza sativa, 250 g ai/ha, Flood; 0 to 100 scale where 0 is no effect and 100 is complete control; read-out: Rice plant response rating", "outline": "as §2"}, "[20]": {"system": "sedge, umbrella (small-flower umbrella sedge, Cyperus difformis)", "assay": "Test B flooded paddy test", "conditions": "Cyperus difformis, 250 g ai/ha, Flood; 0 to 100 scale where 0 is no effect and 100 is complete control; read-out: Sedge, Umbrella plant response rating", "outline": "as §2"}, "[21]": {"conditions": "125 g ai/ha, Postemergence, visual injury after approximately 10 d, 0 to 100 scale where 0 is no effect and 100 is complete control"}, "[22]": {"conditions": "500 g ai/ha, postemergence, visual injury, 0 to 100 scale (0 no effect, 100 complete control), approx. 10 d"}}, "data": [{"smiles": "CN1CC[C@H](c2ccc(OC(F)(F)F)cc2)[C@@H](C(=O)Nc2cccc(Cl)c2F)C1=O", "note": "[Compound 1002]", "values": [{"measurement": "pest or weed control at 125 g/ha", "setting": "[1]; 125 g ai/ha, Preemergence, visual injury rating after approximately 10 d, read-out: Kochia plant response rating (0 to 100 scale, 0 is no effect, 100 is complete control)", "result": 0, "unit": "%"}, {"measurement": "pest or weed control at 500 g/ha", "setting": "[1]; 500 g ai/ha, preemergence, visual injury rating about 10 d after treatment, 0 to 100 scale (0 no effect, 100 complete control), read-out: Kochia plant response rating", "result": 0, "unit": "%"}, {"measurement": "pest or weed control at 125 g/ha", "setting": "[2]; 125 g ai/ha, Preemergence, visual injury rating after approximately 10 d, read-out: Barnyardgrass plant response rating (0 to 100 scale, 0 is no effect, 100 is complete control)", "result": 20, "unit": "%"}, {"measurement": "pest or weed control at 500 g/ha", "setting": "[2]; 500 g ai/ha, preemergence, visual injury rating about 10 d after treatment, 0 to 100 scale (0 no effect, 100 complete control), read-out: Barnyardgrass plant response rating", "result": 70, "unit": "%"}, {"measurement": "pest or weed control at 125 g/ha", "setting": "[3]; 125 g ai/ha, Preemergence, visual injury rating after approximately 10 d, read-out: Foxtail, Giant plant response rating (0 to 100 scale, 0 is no effect, 100 is complete control)", "result": 30, "unit": "%"}, {"measurement": "pest or weed control at 500 g/ha", "setting": "[3]; 500 g ai/ha, preemergence, visual injury rating about 10 d after treatment, 0 to 100 scale (0 no effect, 100 complete control), read-out: Foxtail, Giant plant response rating", "result": 80, "unit": "%"}, {"measurement": "pest or weed control at 125 g/ha", "setting": "[4]; 125 g ai/ha, Preemergence, visual injury rating after approximately 10 d, read-out: Pigweed plant response rating (0 to 100 scale, 0 is no effect, 100 is complete control)", "result": 20, "unit": "%"}, {"measurement": "pest or weed control at 500 g/ha", "setting": "[4]; 500 g ai/ha, preemergence, visual injury rating about 10 d after treatment, 0 to 100 scale (0 no effect, 100 complete control), read-out: Pigweed plant response rating", "result": 50, "unit": "%"}, {"measurement": "pest or weed control at 125 g/ha", "setting": "[5]; 125 g ai/ha, Preemergence, visual injury rating after approximately 10 d, read-out: Ragweed plant response rating (0 to 100 scale, 0 is no effect, 100 is complete control)", "result": 0, "unit": "%"}, {"measurement": "pest or weed control at 500 g/ha", "setting": "[5]; 500 g ai/ha, preemergence, visual injury rating about 10 d after treatment, 0 to 100 scale (0 no effect, 100 complete control), read-out: Ragweed plant response rating", "result": 0, "unit": "%"}, {"measurement": "pest or weed control at 125 g/ha", "setting": "[6]; 125 g ai/ha, Preemergence, visual injury rating after approximately 10 d, read-out: Ryegrass, Italian plant response rating (0 to 100 scale, 0 is no effect, 100 is complete control)", "result": 0, "unit": "%"}, {"measurement": "pest or weed control at 500 g/ha", "setting": "[6]; 500 g ai/ha, preemergence, visual injury rating about 10 d after treatment, 0 to 100 scale (0 no effect, 100 complete control), read-out: Ryegrass, Italian plant response rating", "result": 0, "unit": "%"}, {"measurement": "pest or weed control at 125 g/ha", "setting": "[7]; [21]", "result": 0, "unit": "%"}, {"measurement": "pest or weed control at 500 g/ha", "setting": "[7]; [22]", "result": 0, "unit": "%"}, {"measurement": "pest or weed control at 125 g/ha", "setting": "[8]; [21]", "result": 0, "unit": "%"}, {"measurement": "pest or weed control at 500 g/ha", "setting": "[8]; [22]", "result": 40, "unit": "%"}, {"measurement": "pest or weed control at 125 g/ha", "setting": "[9]; [21]", "result": 50, "unit": "%"}, {"measurement": "pest or weed control at 500 g/ha", "setting": "[9]; [22]", "result": 90, "unit": "%"}, {"measurement": "pest or weed control at 125 g/ha", "setting": "[10]; [21]", "result": 0, "unit": "%"}, {"measurement": "pest or weed control at 500 g/ha", "setting": "[10]; [22]", "result": 0, "unit": "%"}, {"measurement": "Corn plant response rating (crop injury, 0 = no effect, 100 = complete kill) at 125 g/ha", "setting": "[11]; [21]", "result": 0, "unit": "%"}, {"measurement": "Corn plant response rating (crop injury, 0 = no effect, 100 = complete kill) at 500 g/ha", "setting": "[11]; [22]", "result": 0, "unit": "%"}, {"measurement": "pest or weed control at 125 g/ha", "setting": "[12]; [21]", "result": 0, "unit": "%"}, {"measurement": "pest or weed control at 500 g/ha", "setting": "[12]; [22]", "result": 50, "unit": "%"}, {"measurement": "pest or weed control at 125 g/ha", "setting": "[13]; [21]", "result": 0, "unit": "%"}, {"measurement": "pest or weed control at 500 g/ha", "setting": "[13]; [22]", "result": 0, "unit": "%"}, {"measurement": "pest or weed control at 125 g/ha", "setting": "[14]; [21]", "result": 0, "unit": "%"}, {"measurement": "pest or weed control at 500 g/ha", "setting": "[14]; [22]", "result": 0, "unit": "%"}, {"measurement": "pest or weed control at 125 g/ha", "setting": "[15]; [21]", "result": 0, "unit": "%"}, {"measurement": "pest or weed control at 500 g/ha", "setting": "[15]; [22]", "result": 0, "unit": "%"}, {"measurement": "plant injury at 125 g/ha", "setting": "[16]; [21]", "result": 0, "unit": "%"}, {"measurement": "plant injury at 500 g/ha", "setting": "[16]; [22]", "result": 0, "unit": "%"}, {"measurement": "pest or weed control at 250 g/ha", "setting": "[17]", "result": 0, "unit": "%"}, {"measurement": "pest or weed control at 250 g/ha", "setting": "[18]", "result": 60, "unit": "%"}, {"measurement": "pest or weed control at 250 g/ha", "setting": "[19]", "result": 0, "unit": "%"}, {"measurement": "pest or weed control at 250 g/ha", "setting": "[20]", "result": 0, "unit": "%"}]}]}
